Assay results as given in patent US8067009B1, “Metalloproteinase oligopeptides and their therapeutic use” (priority 2011, dated 2011).
Where no end group is shown, it is not given here.

Key:
anti-peptide mouse IgG = assay: Anti-peptide immune response assay (Elisa) on serum of immunized mice; format: in vivo, Male C57BL/6 mice; details: for Elisa Test pep before B16FO given / Elisa Test pep after B16FO given: read at 450 nm
Experimental: In another embodiment, the synthesized oligopeptides were biotinylated at N-terminal using four carbon spacers by Genscript (Pitcataway, N.J. 08554 USA) and conjugated to KLH protein. In an experiment performed on mice animals were procured, immunized, tumor induced and observed for effectiveness of the treatment of oligopeptide-induced immunotherapy.
The injections were prepared using 100 μl l of KLH conjugated biotinylated peptides and 100 μl of complete Freund's adjuvant (Sigma, St. Louis, Mo.).
(§1) Male C57BL/6 mice 6 weeks of age on arrival were purchased from Simonsen Laboratories, Gilroy, Calif. and maintained in microisolator cage under pathogen-free conditions on a 12-h light/12-h dark schedule for a week. All animals were cared for in accordance with institutional guidelines for the care and use of experimental animals. After housing for a week, the mice (n=5/group) were immunized by intraperitoneal injection on Day 0, and incomplete Freund adjuvant (Sigma) on Day 7, 14 and 28. The blood samples were tested for their immune response by standard Elisa test using microtiter plates. Repeating injections of synthetic peptides in mice produce an immune response to specific individual peptides. Various dilutions were tried and examples of dilutions tried are 1:100, 1:1000 and 1:10000.
All four peptides were conjugated covalently to keyhole limpet hemocyanin (KLH) protein. In a typical experiment 1 mg of the peptide, 4 mg of KLH was dissolved in 5 ml of 0.01 M NaHCO3 and 2 μl of glutaraldehyde and stirred overnight. At the end 100 μl of 1M glycine ethyl ester to the final concentration of 0.1 M and left for 30 min at room temperature. Then precipitated with 4-5 vol of cold acetone at −70 C for 30 minute. Then briefly warmed at room temperature and pellet at 10,000 g for 10 min. The pellet was dissolved in 1 ml of 0.1M NaHCO3 and stored at −20° C.
Microtiter plates were coated with individual peptide in 100 µl/well […] carbonate buffer, pH 9.5 for 20 h at 20° C. After washing, wells were incubated with serial dilution of mouse serum in PBS/0.5% BSA, Tween 20 (binding buffer, BB). After washing, well were incubated with 100 µl/well rabbit anti-mouse IgG polyclonal antibody conjugated with horseradish peroxidase (HRP) in BB for 30 rain at 37° C. After washing, the titer of anti-peptide mouse IgG was determined by color reaction with TMB substrate solution at 450 nm.

[1] = test system: human cervical cancer HeLa cells; assay: Matrigel invasion with anti-sera from immunized mice; format: cell-based; details: anti-sera 1:100 dilution, 24 hours, FIGS. 3A-3D
Experimental: Human cervical cancer (Hela) and murine melanoma B16F0 cells obtained from ATCC (American Type Culture Collection, Rockville, Md.) were maintained in Dulbecco's modified Eagle's medium supplemented with 10% fetal bovine serum and antibiotics. The media and sera used were obtained from ATCC, and antibiotics (penicillin and streptomycin) were from Gibco BRL, Long Island, N.Y.
Invasion studies were conducted using Matrigel™ (Becton Dickinson) inserts in 24-well plates. Suspended in medium containing anti-sera from the experimental immunized mice 1:100 dilution, human cervical cancer HeLa cells seeded on the insert in the well. The well has human dermal fibroblast primed media as chemotaxtant. The plates with the inserts were then incubated in a culture incubator equilibrated with 95% air and 5% CO: for 24 hours. After incubation, the media from the wells were withdrawn. The cells on the upper surface of the insert were gently scrubbed away with cotton swabs. The cells that had penetrated the Matrigel™ membrane were stained with hematoxylin and eosin (H&E) and visually counted under the microscope.

[2] = test system: murine melanoma B16F0 cells; assay: Tumor growth after challenge of immunized mice with melanoma cells; format: in vivo, Male C57BL/6 mice; details: visual, FIG. 7 A-E
Text: as §1
After dosing the mice, on 45th day, mice were bleed through orbital puncture and blood was collected in 2-ml micro centrifuged tube. After testing for immune response against individual peptides, the mice in each group were inoculated subcutaneously with 0.5×10^6 in 0.2 ml PBS. After injection, the mice were returned the cages and fed regular Purina mouse chow diet. After four weeks, the mice were sacrificed and their tumors were excised. Dimensions (length and width) of tumors were measured using digital caliper, and tumor burden was calculated using the following formula: […].

[3] = column 5, serum dilution 1:1000
[4] = column 5, serum dilution 1:10000
[5] = column 6, serum dilution 1:1000
[6] = column 6, serum dilution 1:10000
[7] = column 7, serum dilution 1:1000
[8] = column 7, serum dilution 1:10000
[9] = column 8, serum dilution 1:1000
[10] = column 8, serum dilution 1:10000
[11] = column 9, serum dilution 1:1000
[12] = column 9, serum dilution 1:10000
[13] = column 10, serum dilution 1:100
[14] = column 10, serum dilution 1:1000
[15] = column 10, serum dilution 1:10000
[16] = column 11, serum dilution 1:100
[17] = column 11, serum dilution 1:1000
[18] = column 11, serum dilution 1:10000
[19] = column 12, serum dilution 1:100
[20] = column 12, serum dilution 1:1000
[21] = column 12, serum dilution 1:10000

Substance | Elisa Test pep before B16FO given (anti-peptide mouse IgG; column 5, serum dilution 1:100) | Elisa Test pep before B16FO given (anti-peptide mouse IgG; [3]) | Elisa Test pep before B16FO given (anti-peptide mouse IgG; [4]) | Elisa Test pep before B16FO given (anti-peptide mouse IgG; column 6, serum dilution 1:100) | Elisa Test pep before B16FO given (anti-peptide mouse IgG; [5]) | Elisa Test pep before B16FO given (anti-peptide mouse IgG; [6]) | Elisa Test pep before B16FO given (anti-peptide mouse IgG; column 7, serum dilution 1:100) | Elisa Test pep before B16FO given (anti-peptide mouse IgG; [7]) | Elisa Test pep before B16FO given (anti-peptide mouse IgG; [8]) | Elisa Test pep before B16FO given (anti-peptide mouse IgG; column 8, serum dilution 1:100) | Elisa Test pep before B16FO given (anti-peptide mouse IgG; [9]) | Elisa Test pep before B16FO given (anti-peptide mouse IgG; [10]) | Elisa Test pep after B16FO given (anti-peptide mouse IgG; column 9, serum dilution 1:100) | Elisa Test pep after B16FO given (anti-peptide mouse IgG; [11]) | Elisa Test pep after B16FO given (anti-peptide mouse IgG; [12]) | Elisa Test pep after B16FO given (anti-peptide mouse IgG; [13]) | Elisa Test pep after B16FO given (anti-peptide mouse IgG; [14]) | Elisa Test pep after B16FO given (anti-peptide mouse IgG; [15]) | Elisa Test pep after B16FO given (anti-peptide mouse IgG; [16]) | Elisa Test pep after B16FO given (anti-peptide mouse IgG; [17]) | also measured
-C-H-F-P-F-I-F-E-G-R-S-Y-S-A-C- (CHFPFIFEGRSYSAC; cysteine pairing not given here; also: biotinylated, KLH conjugate) [MMP-9 A-1, MMP-9 oligopeptide, biotinylated and conjugated to KLH for immunization] | 3.898 | 3.402 | .394 | 3.868 | 1.901 | .274 | 3.843 | 1.033 | .228 | 3.895 | 2.127 | .330 | 3.897 | 3.624 | .645 | 3.864 | 1.875 | .244 | 3.820 | .999 | Elisa Test pep after B16FO given (anti-peptide mouse IgG; [18]): .226; Elisa Test pep after B16FO given (anti-peptide mouse IgG; [19]): 3.87; Elisa Test pep after B16FO given (anti-peptide mouse IgG; [20]): 2.01; Elisa Test pep after B16FO given (anti-peptide mouse IgG; [21]): .22; cells invading through the Matrigel compared to control [1]: more in number compared to MMP-9 A1 treated cells
-C-P-R-K-P-K-W-D-K-C- (CPRKPKWDKC; cysteine pairing not given here; also: biotinylated, KLH conjugate) [MMP-2 A-4, MMP-2 oligopeptide, biotinylated and conjugated to KLH for immunization] | 1.485 | .650 | .220 | 2.409 | .974 | .257 | 1.811 | .771 | .208 | 1.649 | .289 | .168 | 1.836 | .706 | .290 | 3.172 | 1.286 | .313 | 2.278 | .775 | intensity of immune response (anti-peptide mouse IgG; 1:100 dilution): slightly less; Elisa Test pep after B16FO given (anti-peptide mouse IgG; [18]): .230; Elisa Test pep after B16FO given (anti-peptide mouse IgG; [19]): 1.621; Elisa Test pep after B16FO given (anti-peptide mouse IgG; [20]): .294; Elisa Test pep after B16FO given (anti-peptide mouse IgG; [21]): .167
-D-R-D-K-L-F-G-F-C-P-T-R-A-D-S- (DRDKLFGFCPTRADS; also: biotinylated, KLH conjugate) [MMP-9 A-3, MMP-9 oligopeptide, biotinylated and conjugated to KLH for immunization] | 3.775 | .394 | .159 | 3.810 | 2.157 | .631 | 1.991 | .272 | .159 | 3.812 | 2.281 | .267 | 3.776 | .448 | .167 | 3.814 | 1.332 | .209 | 2.063 | .448 | Elisa Test pep after B16FO given (anti-peptide mouse IgG; [18]): .158; Elisa Test pep after B16FO given (anti-peptide mouse IgG; [19]): 3.84; Elisa Test pep after B16FO given (anti-peptide mouse IgG; [20]): 2.34; Elisa Test pep after B16FO given (anti-peptide mouse IgG; [21]): .296; size of excised tumors [2]: one of the tumors have completely disappeared
-D-T-D-D-R-F-G-F- (DTDDRFGF; also: biotinylated, KLH conjugate) [M MP-9 A-2, MMP-9 oligopeptide, biotinylated and conjugated to KLH for immunization] | 3.581 | .646 | .224 | 3.863 | 1.339 | .261 | 3.870 | 2.856 | .477 | 3.238 | .360 | .175 | 3.635 | .526 | .203 | 3.609 | .859 | .235 | 3.465 | .277 | Elisa Test pep after B16FO given (anti-peptide mouse IgG; [18]): .161; Elisa Test pep after B16FO given (anti-peptide mouse IgG; [19]): 3.86; Elisa Test pep after B16FO given (anti-peptide mouse IgG; [20]): .274; Elisa Test pep after B16FO given (anti-peptide mouse IgG; [21]): .348
